{"source": "patent US20220401514A1", "about": "“ANTIMICROBIAL, BACTERIOPHAGE-DERIVED POLYPEPTIDES AND THEIR USE AGAINST GRAM-NEGATIVE AND ACID-FAST BACTERIA” (CONTRAFECT CORPORATION, priority 2019, published 2022)", "key": {"S. maltophilia": {"test_system": "S. maltophilia", "test": "MIC against S. maltophilia isolates", "format": "cell-based, Stenotrophomonas maltophilia", "conditions": "S. maltophilia isolates (n per peptide in table)", "summary_of_the_method": "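MIC in μg/mL for Chp peptides across several S. maltophilia isolates, n denoting the number of isolates tested.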"}, "[1]": {"test_system": "P. aeruginosa strain CFS-1292", "test": "MIC in presence of divalent cations (calcium chloride, magnesium sulfate)", "format": "cell-based, Pseudomonas aeruginosa", "procedure": "Next, Chp peptides were evaluated in the presence of different divalent cations. […]; (2) in the presence of 2 mM calcium chloride alone; (3) in the presence of 1 mM magnesium sulfate alone; and (4) in the presence of both 2 mM calcium chloride and 1 mM magnesium sulfate. […]"}, "[2]": {"test_system": "carbapenem-resistant bacterial strains", "test": "organism not typed", "format": "cell-based", "text": "(§1) Determination of Minimal Inhibitory Concentrations (MIC)."}, "M. avium": {"test_system": "M. avium", "test": "45 hr MIC against M. avium (NTM)", "format": "cell-based, Mycobacterium avium", "conditions": "M. avium Chester ATCC 700898"}, "[3]": {"test_system": "P. aeruginosa strain CFS-1292", "test": "MIC in presence and absence of Survanta pulmonary surfactant", "format": "cell-based, Pseudomonas aeruginosa"}, "[4]": {"test_system": "Pseudomonas aeruginosa, Escherichia coli, Enterobacter cloacae, Klebsiella pneumoniae, and Acinetobacter baumannii", "test": "MIC against a range of Gram-negative organisms (statements covering several species)", "format": "cell-based", "conditions": "Tables 40-44 isolates", "procedure": "as §1\n(§2) Additional MIC testing was performed for several peptides against the ESKAPE pathogens Escherichia coli, Enterobacter cloacae, Klebsiella pneumoniae, and Acinetobacter baumannii, in CAA supplemented with human serum (Table D)."}, "[5]": {"test_system": "carbapenem-resistant P. aeruginosa clinical isolate CFS-1292", "test": "MIC by modified CLSI broth microdilution against P. aeruginosa CFS-1292 (CAA, CAA + human serum)", "format": "cell-based, Pseudomonas aeruginosa"}, "Klebsiella pneumoniae": {"test_system": "Klebsiella pneumoniae", "format": "cell-based", "procedure": "as §1, §2"}, "Acinetobacter baumannii": {"test_system": "Acinetobacter baumannii", "test": "microbe, parasite or virus in culture", "format": "cell-based"}, "Pseudomonas aeruginosa": {"test_system": "Pseudomonas aeruginosa", "test": "microbe, parasite or virus in culture", "format": "cell-based", "conditions": "P. aeruginosa isolates (n per peptide in table)"}, "M. intracellulare": {"test_system": "M. intracellulare", "test": "45 hr MIC against M. intracellulare (NTM)", "format": "cell-based, Mycobacterium intracellulare", "conditions": "M. intracellulare (Cuttino and McCabe) Runyon ATCC 13950"}, "[6]": {"test_system": "P. aeruginosa strain CFS-1292", "test": "MIC at pH 6, pH 7 and pH 8", "format": "cell-based, Pseudomonas aeruginosa", "procedure": "The Chp peptides were further evaluated at varying pH levels. The MIC values were determined at pH 6, pH 7, and pH 8 for 18 different Chp peptides against P. aeruginosa strain CFS-1292. […]"}, "M. scrofulaceum": {"test_system": "M. scrofulaceum", "test": "45 hr MIC against M. scrofulaceum (NTM)", "format": "cell-based, Mycobacterium scrofulaceum", "conditions": "M. scrofulaceum Prissick and Masson ATCC 19981"}, "[7]": {"test_system": "Mycobacterium tuberculosis strains", "protocol": "MIC values for various Chp peptides were determined using the CLSI method for broth microdilution in 96-well microtiter format.\nNext, MIC values for various Chp peptides were determined using the CLSI method above for broth microdilution in 96-well microtiter format for two different Mycobacterium tuberculosis strains. The MIC was determined as explained above for the NTM strains."}, "M. fortuitum": {"test_system": "M. fortuitum", "test": "45 hr MIC against M. fortuitum (NTM)", "format": "cell-based, Mycobacterium fortuitum", "conditions": "M. fortuitum subsp. Fortuitum da Costa Cruz. ATCC 6841"}, "Escherichia coli": {"test_system": "Escherichia coli", "test": "microbe, parasite or virus in culture", "format": "cell-based", "summary_of_the_method": "(§3)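 Medium: CAA with added human serum. Peptides tested for minimal inhibitory concentration against each strain.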"}, "Enterobacter cloacae": {"test_system": "Enterobacter cloacae", "test": "microbe, parasite or virus in culture", "format": "cell-based", "summary_of_the_method": "as §3"}, "[8]": {"test_system": "M. kansasii Hauduroy ATCC 12478", "test": "45 hr MIC against M. kansasii (NTM), Mueller Hinton broth", "format": "cell-based, Mycobacterium kansasii"}, "M. smegmatis": {"test_system": "M. smegmatis", "test": "45 hr MIC against M. smegmatis (NTM), Mueller Hinton broth", "format": "cell-based, Mycobacterium smegmatis"}, "[9]": {"test": "Stability assessment in 100% CAA", "format": "in vitro ADME", "set-up": "unit not given beside the values", "procedure": "Stability was assessed after incubation in 100% human serum at 37° C. after 10 minutes, 1 hour, and 2 hours.\nStability assessment was further conducted in 100% CAA and rabbit serum using the same methodology discussed above."}, "[10]": {"test_system": "P. aeruginosa strain CFS-1292", "test": "MIC in presence and absence of NaCl (140 mM)", "format": "cell-based, Pseudomonas aeruginosa", "procedure": "Certain Chp peptides were evaluated over a range of physiological NaCl levels and pH values, and were further evaluated for activity in the presence of various divalent cations."}, "[11]": {"test_system": "P. aeruginosa strain CFS-1292", "test": "MIC in presence of mouse, rat, rabbit and human serum ([…] each)", "format": "cell-based, Pseudomonas aeruginosa", "conditions": "P. aeruginosa CFS-1292", "procedure": "The activity of several Chp peptides against P. aeruginosa strain CFS-1292 in animal serum was evaluated. […] Rat, mouse, and rabbit serum were all obtained from pooled gender samples."}, "[12]": {"conditions": "K. pneumoniae isolates (n per peptide in table)"}, "[13]": {"conditions": "A. baumannii isolates (n per peptide in table)"}, "[14]": {"conditions": "E. coli isolates (n per peptide in table)"}, "[15]": {"conditions": "E. cloacae isolates (n per peptide in table)"}}, "note": "Where two headings read alike, the source gives them in different places.", "data": [{"sequence": "MARSRRRMSKRSSRRSFRKYAKTHKKNFKARSMRGGIRL [Ecp3]", "values": [{"measurement": "MIC50", "setting": "S. maltophilia", "result": 4, "unit": "µg/mL"}, {"measurement": "MIC100", "setting": "S. maltophilia", "result": ">8", "unit": "µg/mL"}, {"measurement": "MIC", "setting": "[1]; CAA media + 1 mM MgSO4", "result": 2, "unit": "µg/mL"}, {"measurement": "MIC", "setting": "[1]; CAA media + 2 mM CaCl2", "result": 2, "unit": "µg/mL"}, {"measurement": "MIC", "setting": "[1]; CAA media + + 1 mM MgSO4", "result": 2, "unit": "µg/mL"}, {"measurement": "MIC", "setting": "[1]; CAA media alone", "result": 1, "unit": "µg/mL"}, {"measurement": "MIC", "setting": "[2]; carbapenem-resistant isolate PA19", "result": 0.5, "unit": "µg/mL"}, {"measurement": "MIC", "setting": "[2]; carbapenem-resistant isolate PA20", "result": 4, "unit": "µg/mL"}, {"measurement": "MIC", "setting": "[2]; carbapenem-resistant isolate PA21", "result": 4, "unit": "µg/mL"}, {"measurement": "MIC", "setting": "[2]; carbapenem-resistant isolate PA22", "result": 4, "unit": "µg/mL"}, {"measurement": "MIC", "setting": "[2]; carbapenem-resistant isolate PA23", "result": 2, "unit": "µg/mL"}, {"measurement": "MIC", "setting": "[2]; carbapenem-resistant isolate PA24", "result": 2, "unit": "µg/mL"}, {"measurement": "MIC", "setting": "[2]; carbapenem-resistant isolate WLC-452", "result": 1, "unit": "µg/mL"}, {"measurement": "45 hr MIC", "setting": "M. avium", "result": 1, "unit": "µg/mL"}, {"measurement": "MIC", "setting": "[3]; CAA media + 0.19 mg/mL Survanta", "result": 0.5, "unit": "µg/mL"}, {"measurement": "MIC", "setting": "[3]; CAA media + […] Survanta", "result": 0.5, "unit": "µg/mL"}, {"measurement": "MIC", "setting": "[3]; CAA media alone", "result": 0.5, "unit": "µg/mL"}, {"measurement": "activity (good = MIC100 of ≤4) against all of P. aeruginosa, K. pneumoniae, A. baumannii, E. cloacae, and E. coli", "setting": "[4]", "result": "good activity"}, {"measurement": "MIC (μg/mL) against CFS-1292 in 100% CAA (1st run/2nd run)", "setting": "[5]; 100% CAA, 1st run or single value", "result": 0.5, "unit": "µg/mL"}, {"measurement": "MIC (μg/mL) against CFS-1292 in CAA + […] human serum", "setting": "[5]; CAA + […] human serum", "result": 0.5, "unit": "µg/mL"}, {"measurement": "MIC50", "setting": "Klebsiella pneumoniae; [12]", "result": 1, "unit": "µg/mL"}, {"measurement": "MIC100", "setting": "Klebsiella pneumoniae; [12]", "result": 2, "unit": "µg/mL"}, {"measurement": "MIC Range", "setting": "Klebsiella pneumoniae; [12]", "result": "0.5 to 4", "unit": "µg/mL"}, {"measurement": "MIC", "setting": "Klebsiella pneumoniae; Klebsiella pneumoniae HM-44, CAA supplemented with human serum", "result": 0.5, "unit": "µg/mL"}, {"measurement": "MIC50", "setting": "Acinetobacter baumannii; [13]", "result": 0.25, "unit": "µg/mL"}, {"measurement": "MIC100", "setting": "Acinetobacter baumannii; [13]", "result": 0.5, "unit": "µg/mL"}, {"measurement": "MIC Range", "setting": "Acinetobacter baumannii; [13]", "result": "0.125 to 0.5", "unit": "µg/mL"}, {"measurement": "MIC", "setting": "Acinetobacter baumannii; Acinetobacter baumannii ATCC BAA 747, CAA supplemented with human serum", "result": 2, "unit": "µg/mL"}, {"measurement": "MIC50", "setting": "Pseudomonas aeruginosa", "result": 2, "unit": "µg/mL"}, {"measurement": "MIC100", "setting": "Pseudomonas aeruginosa", "result": 4, "unit": "µg/mL"}, {"measurement": "MIC Range", "setting": "Pseudomonas aeruginosa", "result": "0.5 to 4", "unit": "µg/mL"}, {"measurement": "45 hr MIC", "setting": "M. intracellulare", "result": 8, "unit": "µg/mL"}, {"measurement": "MIC", "setting": "[6]; CAA media (pH 7)", "result": 1, "unit": "µg/mL"}, {"measurement": "MIC", "setting": "[6]; pH 6", "result": 2, "unit": "µg/mL"}, {"measurement": "MIC", "setting": "[6]; pH 7", "result": 2, "unit": "µg/mL"}, {"measurement": "MIC", "setting": "[6]; pH 8", "result": 2, "unit": "µg/mL"}, {"measurement": "45 hr MIC", "setting": "M. scrofulaceum", "result": 2, "unit": "µg/mL"}, {"measurement": "MIC", "setting": "[7]; Mycobacterium tuberculosis (Zopf) Lehmann and Neumann ATCC 25177", "result": 16, "unit": "µg/mL"}, {"measurement": "MIC", "setting": "[7]; Mycobacterium tuberculosis (Zopf) Lehmann and Neumann ATCC 35817", "result": 8, "unit": "µg/mL"}, {"measurement": "45 hr MIC", "setting": "M. fortuitum", "result": 2, "unit": "µg/mL"}, {"measurement": "MIC50", "setting": "Escherichia coli; [14]", "result": 1, "unit": "µg/mL"}, {"measurement": "MIC100", "setting": "Escherichia coli; [14]", "result": 2, "unit": "µg/mL"}, {"measurement": "MIC Range", "setting": "Escherichia coli; [14]", "result": "0.125 to 8", "unit": "µg/mL"}, {"measurement": "MIC", "setting": "Escherichia coli; Escherichia coli ATCC 25922, CAA supplemented with human serum", "result": 1, "unit": "µg/mL"}, {"measurement": "MIC50", "setting": "Enterobacter cloacae; [15]", "result": 0.5, "unit": "µg/mL"}, {"measurement": "MIC100", "setting": "Enterobacter cloacae; [15]", "result": 4, "unit": "µg/mL"}, {"measurement": "MIC Range", "setting": "Enterobacter cloacae; [15]", "result": "0.25 to 4", "unit": "µg/mL"}, {"measurement": "MIC", "setting": "Enterobacter cloacae; Enterobacter cloacae ATCC 13047, CAA supplemented with human serum", "result": 4, "unit": "µg/mL"}, {"measurement": "45 hr MIC", "setting": "[8]", "result": 2, "unit": "µg/mL"}, {"measurement": "45 hr MIC", "setting": "M. smegmatis; M. smegmatis MC^2 155, Run #1", "result": 4, "unit": "µg/mL"}, {"measurement": "45 hr MIC", "setting": "M. smegmatis; M. smegmatis MC^2 155, Run #2", "result": 8, "unit": "µg/mL"}, {"measurement": "MIC (100% CAA)", "setting": "[9]", "result": 0.5}, {"measurement": "Fold change in MIC", "setting": "[10]; CAA + 140 mM NaCl versus CAA without added NaCl", "result": 4}, {"measurement": "MIC, CAA + 140 mM NaCl", "setting": "[10]; CAA + 140 mM NaCl, P. aeruginosa CFS-1292", "result": 2, "unit": "µg/mL"}, {"measurement": "MIC, CAA (no added NaCl)", "setting": "[10]; CAA, no added NaCl, P. aeruginosa CFS-1292", "result": 0.5, "unit": "µg/mL"}, {"measurement": "MIC BALB/C Mouse Serum", "setting": "[11]; BALB/C mouse serum […]", "result": ">32", "unit": "µg/mL"}, {"measurement": "MIC CAA", "setting": "[11]; CAA", "result": 0.5, "unit": "µg/mL"}, {"measurement": "MIC New Zealand White Rabbit Serum", "setting": "[11]; New Zealand White rabbit serum […]", "result": 8, "unit": "µg/mL"}, {"measurement": "MIC Sprague Dawley Rat Serum", "setting": "[11]; Sprague Dawley rat serum […]", "result": 8, "unit": "µg/mL"}, {"measurement": "MIC Human Serum", "setting": "[11]; human serum […]", "result": 0.5, "unit": "µg/mL"}]}]}
